pKd: −log10 of the molar value.
Target: T1, HpVAL-4 (Heligmosomoides polygyrus, UniProt A0A183GMB4)
T1 construct: mature protein, Arabidopsis chitinase signal peptide for secretion, no tag mentioned; Nicotiana benthamiana leaf apoplast; N-glycosylated
Assay: radioligand binding, adsorption to Q-Sepharose, scintillation counting

T1 sequence (A0A183GMB4 entry or part of it): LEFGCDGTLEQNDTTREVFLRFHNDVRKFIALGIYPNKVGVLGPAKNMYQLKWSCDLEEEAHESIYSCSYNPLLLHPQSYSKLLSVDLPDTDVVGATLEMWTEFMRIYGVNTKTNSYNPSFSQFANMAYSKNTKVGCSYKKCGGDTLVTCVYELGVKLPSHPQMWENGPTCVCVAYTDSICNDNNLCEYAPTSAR

**Q.** `CC(C)CCC[C@@H](C)[C@H]1CC[C@H]2[C@@H]3CC=C4C[C@@H](O)CC[C@]4(C)[C@H]3CC[C@]12C` [cholesterol] was tested. Which pKd did it give?
**A.** The pKd was 5.82.
